Square brackets hold non-standard residues; d marks the D form. Peptide text beside a SMILES is read from it. Hyp = O=C(O)[C@@H]1C[C@@H](O)CN1
Target: T1, Foxo1 (Mus musculus, UniProt Q9R1E0)
T1 construct: full-length
Experiment: competition of free Pro-Hyp with (Pro-Hyp-Gly)5-linked magnetic beads, Western blot
Assay type: binding
Settings: free Pro-Hyp 0.1 or 10 mM; pH 7.8, 150 mM KCl, 4 °C overnight; cell extract

T1 sequence (Q9R1E0 whole entry): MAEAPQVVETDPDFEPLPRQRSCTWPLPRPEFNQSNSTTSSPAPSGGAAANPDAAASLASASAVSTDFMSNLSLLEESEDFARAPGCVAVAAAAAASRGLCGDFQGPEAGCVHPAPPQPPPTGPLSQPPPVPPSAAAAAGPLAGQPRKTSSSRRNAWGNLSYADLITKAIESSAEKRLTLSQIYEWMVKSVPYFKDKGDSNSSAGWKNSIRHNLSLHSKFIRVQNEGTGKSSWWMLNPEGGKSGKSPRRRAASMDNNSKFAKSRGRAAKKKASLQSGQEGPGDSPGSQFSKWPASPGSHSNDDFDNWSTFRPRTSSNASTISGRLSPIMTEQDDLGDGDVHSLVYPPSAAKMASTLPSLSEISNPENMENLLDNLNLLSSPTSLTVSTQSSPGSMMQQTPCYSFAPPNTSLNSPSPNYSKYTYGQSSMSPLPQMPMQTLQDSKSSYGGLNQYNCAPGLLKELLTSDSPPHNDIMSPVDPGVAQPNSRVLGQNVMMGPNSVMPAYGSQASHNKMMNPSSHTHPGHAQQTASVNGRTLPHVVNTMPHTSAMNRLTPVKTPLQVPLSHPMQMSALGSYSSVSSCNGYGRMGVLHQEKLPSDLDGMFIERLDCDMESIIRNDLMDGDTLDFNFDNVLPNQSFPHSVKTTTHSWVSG

O=C(O)[C@@H]1C[C@@H](O)CN1C(=O)[C@@H]1CCCN1 [Pro-Hyp] (H-Pro-[Hyp]-OH)
competition of free Pro-Hyp with (Pro-Hyp-Gly)5-linked magnetic beads, Western b: These data suggest that Pro-Hyp binds to Foxo1.

Reference: paper PMC8655505, “Stimulation of the Runx2 P1 promoter by collagen-derived dipeptide prolyl-hydroxyproline bound to Foxg1 and Foxo1 in osteoblasts” (Bioscience Reports, 2021)
